The values that follow come from patent US20110105472A1, “Diaminopyrimidines as crop protection agents” (Bayer CropScience AG, priority 2008, published 2011).

The data set is described as follows: logP by LC-MS, method [b], acidic range pH 2.7. In kind it is physicochemical.

Like-named read-outs stand apart in the source and are kept apart here.

As for `Brc1cnc(Nc2ccc3[nH]ccc3c2)nc1NC1CCC1` [Compound 1], under “pH 2.7”, the log p was 1.59[b].
Still for that read-out and setting: for `Brc1cnc(Nc2ccc3cc[nH]c3c2)nc1NC1CCC1` [Compound 2] the value was 1.7[b].
For the compound `CCS(=O)(=O)c1nc2ccc(Nc3ncc(Br)c(NC4CCC4)n3)cc2s1` [Compound 3], where the note is “method [b], LC-MS, acidic range pH 2.7”, the log p is 2.91[b].
Take `O=C1CCc2cc(Nc3ncc(Br)c(NC4CCC4)n3)ccc2N1` [Compound 4]: the log p (pH 2.7) was 1.49[b].
The same measure, in the same setting: for `O=C1COc2ccc(Nc3ncc(Br)c(NC4CCC4)n3)cc2N1` [Compound 6] the value was 1.61[b].
Still for that read-out and setting: for `Cc1nc2cc(Nc3ncc(Br)c(NC4CCC4)n3)ccc2s1` [Compound 10] the value was 2.11[b].
Same read-out and setting: as for `CC(=O)N1CCc2ccc(Nc3ncc(Br)c(NC4CCC4)n3)cc21` [Compound 12], the figure is 1.78[b]; as for `CN1C(=O)COc2ccc(Nc3ncc(Br)c(NC4CCC4)n3)cc21` [Compound 13], 1.83[b].
For the compound `O=C1CCCc2ccc(Nc3ncc(Br)c(NC4CCC4)n3)cc2N1` [Compound 15], for the setting “pH 2.7”, the log p is 1.75[b].
On the same count and under the same terms, for `O=c1[nH]c2cc(Nc3ncc(Br)c(NC4CCC4)n3)ccc2o1` [Compound 16] the value was 1.61[b]; for `CC(=O)N1CCc2cc(Nc3ncc(Br)c(NC4CCC4)n3)ccc21` [Compound 17], 1.68[b]; for `FC1(F)Oc2ccc(Nc3ncc(Br)c(NC4CCC4)n3)cc2OC1(F)F` [Compound 18], 4.56[b].
Turning to `Brc1cnc(Nc2ccc3c(c2)OCO3)nc1NC1CCC1` [Compound 19], the log p (pH 2.7) is 1.87[b].
On the same count and under the same terms, for `CCc1nc2cc(Nc3ncc(Br)c(NC4CCC4)n3)ccc2o1` [Compound 21] the value was 2.06[b]; for `COc1cc(Nc2ncc(Br)c(NC3CCC3)n2)ccc1F` [Compound 31], 2.41[b]; for `CC(=O)c1cccc(Nc2ncc(Br)c(NC3CCC3)n2)c1` [Compound 32], 2.28[b].
Turning to `Brc1cnc(Nc2cccc(-c3nccs3)c2)nc1NC1CCC1` [Compound 33], the log p (pH 2.7) was 2.8[b].
`CCOc1ccc(Nc2ncc(Br)c(NC3CCC3)n2)cc1` [Compound 35]: the log p (pH 2.7) was 2.17[b].
The same measure, in the same setting: for `COCc1cccc(Nc2ncc(Br)c(NC3CCC3)n2)c1` [Compound 39] the value was 2.2[b].
The same measure, in the same setting: for `CC(C)c1ccc(Nc2ncc(Br)c(NC3CCC3)n2)cc1` [Compound 40] the value was 3.13[b]; for `COCC(C)Oc1ccc(Nc2ncc(Br)c(NC3CCC3)n2)cc1` (stereo not drawn) [Compound 41], 2.11[b].
Consider `COCc1cccc(Nc2ncc(Cl)c(NC3CCC3)n2)c1` [Compound 42], for which the log p (pH 2.7) is 2.05[b].
For the compound `COC(=O)Nc1ccc(Nc2ncc(Br)c(NC3CCC3)n2)cc1` [Compound 46], where the note is “pH 2.7”, the log p is 1.62[b].
Still for that read-out and setting: as for `Fc1ccc(Nc2ncc(Br)c(NC3CCC3)n2)cc1` [Compound 49], the figure is 2.33[b].
`COc1cc(Nc2ncc(Br)c(NC3CCC3)n2)cc(OC)c1` [Compound 53]: the log p (pH 2.7) is 2.12[b].
For the compound `Cc1ccccc1Nc1ncc(Br)c(NC2CCC2)n1` [Compound 60], where the note is “pH 2.7”, the log p was 1.87[b].
`Cc1cc(C)c(C)c(Nc2ncc(Br)c(NC3CCC3)n2)c1` [Compound 61]: the log p (pH 2.7) was 2.57[b].
Take `Fc1ccc(Nc2ncc(Br)c(NC3CCC3)n2)cc1` [Compound 62]: the log p (pH 2.7) was 2.6[b].
Turning to `Fc1cc(C(F)(F)F)ccc1Nc1ncc(Br)c(NC2CCC2)n1` [Compound 63], where the note is “pH 2.7”, the log p was 3.9[b].
Same read-out and setting: for `N#Cc1cccc(Nc2ncc(Br)c(NC3CCC3)n2)c1` [Compound 64] the value was 2.67[b]; for `COc1ccc(Nc2ncc(Br)c(NC3CCC3)n2)cc1OC` [Compound 65], 1.71[b].
Still for that read-out and setting: for `Cc1ccc(NS(=O)(=O)c2cc(Nc3ncc(Br)c(NC4CCC4)n3)ccc2C)cc1` [Compound 66] the value was 3.07[b]; for `COc1ccccc1Nc1ncc(Br)c(NC2CCC2)n1` [Compound 68], 2.23[b]; for `N#Cc1ccc(Nc2ncc(Br)c(NC3CCC3)n2)cc1` [Compound 70], 2.95[b].
For the compound `FC(F)(F)Sc1ccc(Nc2ncc(Br)c(NC3CCC3)n2)cc1` [Compound 71], under “pH 2.7”, the log p was 4.51[b].
On the same count and under the same terms, for `O=C(Nc1ccccc1)c1ccc(Nc2ncc(Br)c(NC3CCC3)n2)cc1` [Compound 72] the value was 2.09[b]; for `CSc1ccc(Nc2ncc(Br)c(NC3CCC3)n2)cc1Cl` [Compound 73], 3.5[b]; for `Brc1cnc(Nc2ccc(-c3cscn3)cc2)nc1NC1CCC1` [Compound 74], 2.26[b].
As to `FC(F)Oc1ccc(Nc2ncc(Br)c(NC3CCC3)n2)cc1` [Compound 75], the log p (pH 2.7) is 2.5[b].
Still for that read-out and setting: for `Clc1cc(Cl)cc(Nc2ncc(Br)c(NC3CCC3)n2)c1` [Compound 76] the value was 4.98[b].
As for `CCOC(=O)c1cccc(Nc2ncc(Br)c(NC3CCC3)n2)c1` [Compound 77], the log p (pH 2.7) was 2.77[b].
As for `COC(=O)c1ccc(Nc2ncc(Br)c(NC3CCC3)n2)cc1Cl` [Compound 78], for the setting “pH 2.7”, the log p was 3.59[b].
In the case of `NS(=O)(=O)c1cc(Nc2ncc(Br)c(NC3CCC3)n2)ccc1Cl` [Compound 79], under “pH 2.7”, the log p was 2.02[b].
Same read-out and setting: as for `Oc1ccc(Nc2ncc(Br)c(NC3CCC3)n2)c(F)c1` [Compound 80], the figure is 1.55[b]; as for `FC(F)(F)Oc1ccc(Nc2ncc(Br)c(NC3CCC3)n2)cc1Cl` [Compound 81], 4.72[b].
Same read-out and setting: for `C=CC(=O)Nc1cccc(Nc2ncc(Br)c(NC3CCC3)n2)c1` [Compound 82] the value was 1.71[b].
Turning to `C=CCNC(=O)c1ccc(Nc2ncc(Br)c(NC3CCC3)n2)cc1` [Compound 83], the log p (pH 2.7) is 1.99[b].
The same measure, in the same setting: as for `COc1cc(Nc2ncc(Br)c(NC3CCC3)n2)ccc1NS(C)(=O)=O` [Compound 84], the figure is 1.75[b]; as for `CS(=O)(=O)Nc1ccc(Nc2ncc(Br)c(NC3CCC3)n2)cc1` [Compound 85], 1.61[b]; as for `CNS(=O)(=O)Cc1ccc(Nc2ncc(Br)c(NC3CCC3)n2)cc1` [Compound 86], 1.71[b].
As for `CN(C)S(=O)(=O)Oc1cccc(Nc2ncc(Br)c(NC3CCC3)n2)c1` [Compound 89], under “pH 2.7”, the log p was 2.7[b].
The same measure, in the same setting: as for `COc1cc(Nc2ncc(Br)c(NC3CCC3)n2)ccc1NC(C)=O` [Compound 90], the figure is 1.59[b].
For `CN(C)S(=O)(=O)c1ccc(Nc2ncc(Br)c(NC3CCC3)n2)cc1` [Compound 91], the log p (pH 2.7) is 2.73[b].
Still for that read-out and setting: for `CC(C)(C)C(=O)Nc1ccc(Nc2ncc(Br)c(NC3CCC3)n2)cc1` [Compound 92] the value was 2.02[b].
For `CCN(C(C)=O)c1ccc(Nc2ncc(Br)c(NC3CCC3)n2)cc1` [Compound 93], under “pH 2.7”, the log p is 1.92[b].
With `CC(=O)N(C)c1ccc(Nc2ncc(Br)c(NC3CCC3)n2)cc1` [Compound 94], the log p (pH 2.7) is 1.73[b].
Same read-out and setting: as for `O=C(Nc1ccc(Nc2ncc(Br)c(NC3CCC3)n2)cc1)C(F)(F)F` [Compound 95], the figure is 2.21[b]; as for `CCC(=O)Nc1cccc(Nc2ncc(Br)c(NC3CCC3)n2)c1` [Compound 97], 1.71[b].
Same read-out and setting: as for `C=C(C)C(=O)Nc1cccc(Nc2ncc(Br)c(NC3CCC3)n2)c1` [Compound 98], the figure is 1.9[b]; as for `CC(C)(C)C(=O)Nc1cccc(Nc2ncc(Br)c(NC3CCC3)n2)c1` [Compound 99], 2.11[b].
With `CNC(=O)c1ccc(Nc2ncc(Br)c(NC3CCC3)n2)cc1` [Compound 101], under “pH 2.7”, the log p was 1.54[b].
The same measure, in the same setting: for `CC(C)(C)NC(=O)c1ccc(Nc2ncc(Br)c(NC3CCC3)n2)cc1` [Compound 102] the value was 2.46[b]; for `CC(C)(C)C(=O)Cc1ccc(Nc2ncc(Br)c(NC3CCC3)n2)cc1` [Compound 104], 2.63[b].
Still for that read-out and setting: for `CCOC(=O)Nc1cccc(Nc2ncc(Br)c(NC3CCC3)n2)c1` [Compound 105] the value was 2.04[b].
Same read-out and setting: for `COC(=O)Nc1cccc(Nc2ncc(Br)c(NC3CCC3)n2)c1` [Compound 106] the value was 1.83[b]; for `COc1cc(Nc2ncc(Cl)c(NC3CCC3)n2)ccc1NC(C)=O` [Compound 108], 1.55[b]; for `COc1cccc(Nc2ncc(Cl)c(NC3CCC3)n2)c1` [Compound 109], 2.06[b].
With `COc1ccc(Nc2ncc(Cl)c(NC3CCC3)n2)cc1` [Compound 110], the log p (pH 2.7) was 1.75[b].
Regarding `N#Cc1ccc(Nc2ncc(Cl)c(NC3CCC3)n2)cc1` [Compound 111], for the setting “pH 2.7”, the log p is 2.77[b].
Still for that read-out and setting: as for `CC(C)(C)C(=O)Nc1ccc(Nc2ncc(Cl)c(NC3CCC3)n2)cc1` [Compound 116], the figure is 1.94[b]; as for `CC(=O)Nc1ccc(Nc2ncc(Cl)c(NC3CCC3)n2)cc1` [Compound 117], 1.43[b]; as for `CCN(C(C)=O)c1ccc(Nc2ncc(Cl)c(NC3CCC3)n2)cc1` [Compound 119], 1.83[b].
On the same count and under the same terms, for `CC(C)(C)C(=O)Nc1cccc(Nc2ncc(Cl)c(NC3CCC3)n2)c1` [Compound 125] the value was 2.04[b]; for `CNC(=O)c1ccc(Nc2ncc(Cl)c(NC3CCC3)n2)cc1` [Compound 126], 1.5[b]; for `COC(=O)Nc1ccc(Nc2ncc(Cl)c(NC3CCC3)n2)cc1` [Compound 135], 1.61[b].
Still for that read-out and setting: for `CCOC(=O)Nc1cccc(Nc2ncc(Cl)c(NC3CCC3)n2)c1` [Compound 137] the value was 1.94[b]; for `CNC(=O)Oc1cccc(Nc2ncc(Cl)c(NC3CCC3)n2)c1` [Compound 138], 1.64[b].
`COC(=O)Nc1cccc(Nc2ncc(Cl)c(NC3CCC3)n2)c1` [Compound 139] gave a log p of 1.73.
Consider `CC1(C(=O)Nc2cccc(Nc3ncc(Cl)c(NC4CCC4)n3)c2)CC1` [Compound 140], for which the log p (pH 2.7) was 1.92[b].
Still for that read-out and setting: as for `CC(C)(CF)C(=O)Nc1cccc(Nc2ncc(Cl)c(NC3CCC3)n2)c1` [Compound 141], the figure is 1.97[b].
Still for that read-out and setting: as for `CC(C)(C)NC(=O)Cc1cccc(Nc2ncc(Br)c(NC3CCC3)n2)c1` [Compound 143], the figure is 2.19[b].
